Data published in paper PMC6009873, “Discovery of novel dual inhibitors of receptor tyrosine kinases EGFR and PDGFR-β related to anticancer drug resistance” (Journal of Enzyme Inhibition and Medicinal Chemistry, 2017).
Values belong to the compound of their own block, whether it stands above or below them.

What was measured:
EGFR = biological target: T1, EGFR (Homo sapiens, UniProt P00533); experiment: Receptor tyrosine kinase inhibition, [γ-33P]-ATP competition FlashPlate assay; assay type: biochemical; conditions: Ki determined from IC50, competitive binding mode, 15 µM ATP, Km ATP 1.3 µM; n.a. = not active
T1 construct: GST; made in house; host or cells: Sf9 insect cells (baculovirus)
T1 sequence (P00533 25-1210): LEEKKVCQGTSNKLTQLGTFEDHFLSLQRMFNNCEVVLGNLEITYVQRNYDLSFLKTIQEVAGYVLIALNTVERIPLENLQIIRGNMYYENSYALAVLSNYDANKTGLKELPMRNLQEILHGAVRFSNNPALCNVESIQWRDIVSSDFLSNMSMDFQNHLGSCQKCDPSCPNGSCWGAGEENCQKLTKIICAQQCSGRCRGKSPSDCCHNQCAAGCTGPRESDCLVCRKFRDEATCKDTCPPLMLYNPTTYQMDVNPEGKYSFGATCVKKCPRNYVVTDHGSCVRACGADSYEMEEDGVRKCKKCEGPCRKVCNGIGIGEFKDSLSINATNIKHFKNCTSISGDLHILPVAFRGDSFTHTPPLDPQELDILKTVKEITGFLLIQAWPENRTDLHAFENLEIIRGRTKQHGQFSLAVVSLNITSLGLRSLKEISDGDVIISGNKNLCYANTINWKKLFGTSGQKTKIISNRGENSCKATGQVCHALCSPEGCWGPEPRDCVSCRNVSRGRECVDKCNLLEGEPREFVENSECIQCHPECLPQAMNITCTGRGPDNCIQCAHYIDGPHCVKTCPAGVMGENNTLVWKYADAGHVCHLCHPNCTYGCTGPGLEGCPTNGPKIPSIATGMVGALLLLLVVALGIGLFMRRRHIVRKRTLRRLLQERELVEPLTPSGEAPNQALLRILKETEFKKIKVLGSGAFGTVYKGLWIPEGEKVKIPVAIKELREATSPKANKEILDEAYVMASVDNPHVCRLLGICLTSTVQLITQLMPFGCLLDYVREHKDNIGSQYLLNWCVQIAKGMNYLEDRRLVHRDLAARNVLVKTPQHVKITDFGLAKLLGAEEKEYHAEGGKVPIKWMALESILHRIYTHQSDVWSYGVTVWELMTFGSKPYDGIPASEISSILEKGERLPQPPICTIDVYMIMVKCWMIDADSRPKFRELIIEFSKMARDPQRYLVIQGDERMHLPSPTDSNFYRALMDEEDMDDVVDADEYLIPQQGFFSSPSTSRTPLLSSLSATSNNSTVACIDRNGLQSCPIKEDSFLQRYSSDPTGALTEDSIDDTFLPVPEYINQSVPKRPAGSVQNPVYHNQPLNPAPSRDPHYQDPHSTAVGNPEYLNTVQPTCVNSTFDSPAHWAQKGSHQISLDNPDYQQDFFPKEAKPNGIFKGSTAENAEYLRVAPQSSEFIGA
Protocol: (§1) The protein kinases were expressed by means of the baculovirus expression system in Sf9 insect cells as human recombinant GST fusion proteins and purified by affinity chromatography using GSH-agarose. The kinase identity was confirmed by mass spectrometry using LC-ESI-MS/MS technique.
The measuring of protein kinase activity was performed in 96-well FlashPlates^TM from Perkin Elmer in a 50 µL reaction volume. The reaction mixture consisted of 20 µL of assay buffer solution, 5 µL of ATP solution in water, 5 µL of used test compound in a 10% dmso solution and, finally, a premixture of each 10 µL of used substrate and enzyme solutions. […] The final kinase concentration has been 10 ng/50 µL for EGFR and 20 ng/50 µL for PDGFR-β. […] The reaction mixtures were incubated at 30 °C for 60 min. The reaction was stopped with 50 µL of a 2% (v/v) solution of phosphoric acid. Then the plates were aspirated and washed twice with 200 µL of water and a 0.9% solution of sodium chloride. The incorporation of ^33 P was determined with a microplate scintillation counter. Ten different inhibitor concentrations were measured in a range of 3 nM to 100 µM. The residual activity (%) and the IC50 values were finally calculated.

PDGFR-β = biological target: T2, PDGFR-β (Homo sapiens, UniProt P09619); experiment: as above; assay type: biochemical; conditions: for Ki / Ki values PDGFR-β: Ki determined from IC50, competitive binding mode, 15 µM ATP, Km ATP 0.989 µM, n.a. = not active
T2 construct: GST; made in house; host or cells: Sf9 insect cells (baculovirus)
T2 sequence (P09619 33-1106): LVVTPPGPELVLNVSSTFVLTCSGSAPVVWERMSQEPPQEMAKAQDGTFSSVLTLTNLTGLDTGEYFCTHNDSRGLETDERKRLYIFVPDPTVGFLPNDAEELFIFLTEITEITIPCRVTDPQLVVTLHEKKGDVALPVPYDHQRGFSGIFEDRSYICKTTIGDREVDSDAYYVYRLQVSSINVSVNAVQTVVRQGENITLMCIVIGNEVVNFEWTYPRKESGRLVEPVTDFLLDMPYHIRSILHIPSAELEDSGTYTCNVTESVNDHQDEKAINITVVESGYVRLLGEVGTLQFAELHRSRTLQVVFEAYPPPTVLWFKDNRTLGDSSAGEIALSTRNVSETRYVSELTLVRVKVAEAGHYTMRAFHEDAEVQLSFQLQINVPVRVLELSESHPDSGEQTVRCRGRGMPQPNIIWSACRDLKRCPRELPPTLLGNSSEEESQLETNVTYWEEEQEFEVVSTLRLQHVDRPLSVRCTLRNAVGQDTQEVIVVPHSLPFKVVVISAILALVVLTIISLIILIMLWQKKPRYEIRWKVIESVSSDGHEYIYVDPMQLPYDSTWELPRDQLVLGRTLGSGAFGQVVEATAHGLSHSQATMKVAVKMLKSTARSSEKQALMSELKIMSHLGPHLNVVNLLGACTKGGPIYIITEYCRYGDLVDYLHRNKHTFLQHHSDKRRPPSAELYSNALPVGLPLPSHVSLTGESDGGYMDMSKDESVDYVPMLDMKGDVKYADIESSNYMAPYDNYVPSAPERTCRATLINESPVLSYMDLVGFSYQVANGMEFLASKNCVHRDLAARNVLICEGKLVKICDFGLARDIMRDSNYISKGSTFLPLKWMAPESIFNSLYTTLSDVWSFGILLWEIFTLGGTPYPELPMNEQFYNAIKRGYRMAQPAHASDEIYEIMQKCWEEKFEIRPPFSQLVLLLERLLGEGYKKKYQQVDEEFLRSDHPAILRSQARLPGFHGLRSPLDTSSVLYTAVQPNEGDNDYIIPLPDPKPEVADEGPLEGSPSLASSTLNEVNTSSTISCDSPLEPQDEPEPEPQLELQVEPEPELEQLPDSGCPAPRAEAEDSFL
Protocol: as §1
The measuring of protein kinase activity was performed in 96-well FlashPlates^TM from Perkin Elmer in a 50 µL reaction volume. The reaction mixture consisted of 20 µL of assay buffer solution, 5 µL of ATP solution in water, 5 µL of used test compound in a 10% dmso solution and, finally, a premixture of each 10 µL of used substrate and enzyme solutions. The assay buffer solution contained 70 mM of HEPES-NAOH pH 7.5, each 3 mM of magnesium chloride and manganese(II) chloride, 3 µM of sodium orthovanadate, 1.2 mM of DTT, 50 µg/mL of PEG20000 and finally 15 µM of [γ-^33 P]-ATP making approximately 9 × 10^5 cpm per well. The final kinase concentration has been 10 ng/50 µL for EGFR and 20 ng/50 µL for PDGFR-β. The substrate was Poly(Glu,Tyr)4:1 for EGFR and Poly(Ala, Glu, Lys, Tyr)6:2:5.1 for PDFGR-β, both used in a concentration of 125 ng/50 µL. The reaction mixtures were incubated at 30 °C for 60 min. The reaction was stopped with 50 µL of a 2% (v/v) solution of phosphoric acid. Then the plates were aspirated and washed twice with 200 µL of water and a 0.9% solution of sodium chloride. The incorporation of ^33 P was determined with a microplate scintillation counter. Ten different inhibitor concentrations were measured in a range of 3 nM to 100 µM. The residual activity (%) and the IC50 values were finally calculated. From the IC50 values the affinity constants Ki were determined using the equation: IC50 =1/2 [Etotal]+Ki × (1 + [S]/Km) following a competitive inhibitor binding mode[19] (Table 1). The used Km values for ATP have been measured with 1.3 µM for EGFR and with 0.989 µM for PDGFR-β.

[1] = tested on: DU-145 prostate cancer cell line; experiment: Cellular growth inhibition assay (NCI, SRB staining); assay type: cell-based; conditions: Homo sapiens; DU-145, 10 µM, 48 h; read-out: Compound growth inhibition
Protocol: (§2) Cells were inoculated into 96 well microtiter plates in […] at plate densities ranging from 5000 to 40.000 cells per well depending from the individual cell doubling time. Then the cell- containing plates were incubated at 37 °C under an air atmosphere containing 5% of carbon dioxide and with a relative humidity for 24 h. After that time two plates of each cell line were fixed in situ with TCA as control before drug addition. Then the drug containing dmso stock solutions were used and mixed with the cell culture medium containing […] of gentamicin. Aliquots of […] of the respective dilution were added to the preincubated plates reaching a final drug concentration of 10 µM. The plates were incubated again under the preincubation conditions as described for 48 h. Then cells were fixed under addition of 50 ml of a cold 50% solution of TCA reaching a final concentration of 10% TCA. Incubation continued for 60 min at 4 °C. The supernatant was discarded and the plates were washed with water for five times and dried at air. Then a sulforhodamine (SRB) solution (0.4%) in acetic acid (1%) was added to each well and plates were incubated again for 10 min. The unbound dye was removed by washing for five times with an acetic acid solution (1%) and the plates were dried at air. The bound stain was solubilised with a […] solution of trizma base and the absorbance was measured with a plate reader at a wavelength of 515 nm. The growth inhibition measured as lowered net protein increase after SRB staining was determined in relation to the untreated control cells (Table 2).
(§3) In first screening studies carried out with an initial concentration of 10 µM by the National Cancer Institute of Health (NCI) the growth inhibition of respective non-small cell lung cancer (NSCLC) cell lines and of prostate cancer cell lines was determined.

[2] = tested on: NCI-H322M non-small cell lung cancer cell line; experiment: as above; assay type: cell-based; conditions: Homo sapiens, 48 h, read-out: Compound growth inhibition
Protocol: as §2, §3

[3] = tested on: NCI-H23 non-small cell lung cancer cell line; experiment: as above; assay type: cell-based; conditions: Homo sapiens; NCI-H23, 10 µM, 48 h; read-out: Compound growth inhibition
Protocol: as §2, §3

[4] = tested on: EKV X non-small cell lung cancer cell line; experiment: as above; assay type: cell-based; conditions: Homo sapiens, EKVX, 48 h, read-out: Compound growth inhibition
Protocol: as §2, §3

[5] = tested on: PC-3 prostate cancer cell line; experiment: as above; assay type: cell-based; conditions: Homo sapiens; PC-3, 10 µM, 48 h; read-out: Compound growth inhibition
Protocol: as §2, §3

NSCLC cell lines = experiment: Cellular growth inhibition assay (NCI, SRB staining), span over the cell lines; assay type: cell-based; conditions: Homo sapiens, span over EKV X, NCI-H23, NCI-H322M, read-out: growth inhibition rates in the NSCLC cell lines
Protocol: as §2, §3

[6] = tested on: prostate cancer cell lines; experiment: as above; assay type: cell-based; conditions: Homo sapiens; span over PC-3 and DU-145, 10 µM; read-out: growth inhibition rates in the prostate cancer cell lines
Protocol: as §2, §3

[7] = tested on: NCI-H23 non-small cell lung cancer cell line; parameters: method as in PMID 19179890, PMID 16926630; conditions: NCI-H23, reported for comparison; cited from earlier work
[8] = tested on: DU-145 prostate cancer cell line; parameters: method as in PMID 19179890, PMID 16926630; conditions: DU-145, reported for comparison; cited from earlier work
[9] = tested on: PC-3 prostate cancer cell line; parameters: method as in PMID 19179890, PMID 16926630; conditions: PC-3, reported for comparison; cited from earlier work

Ki (EGFR): 103 ± 37 nM
Ki (PDGFR-β): 213 ± 35 nM
SMILES: COc1ccc(COc2ccc(Nc3nc(N)nc4[nH]c5ccc(O)cc5c34)cc2Cl)cc1 [Compound 5l, 2-Amino-4-((3-chloro-4-((4-methoxybenzyl)oxy)phenyl)amino)-9H-pyrimido[4,5-b]indol-6-ol]

Ki values EGFR (EGFR): lost
Ki (PDGFR-β): 2750 ± 184 nM
SMILES: CC(C)Oc1cccc(Nc2nc(N)nc3[nH]c4ccc(O)cc4c23)c1 [Compound 5b, 2-Amino-4-((3-isopropoxyphenyl)amino)-9H-pyrimido[4,5-b]indol-6-ol]

Ki (EGFR): 181 ± 14 nM
Ki values PDGFR-β (PDGFR-β): not active
SMILES: CCOc1cccc(Nc2nc(N)nc3[nH]c4ccc(O)cc4c23)c1 [Compound 5a, 2-Amino-4-((3-ethoxyphenyl)amino)-9H-pyrimido[4,5-b]indol-6-ol]
inhibition at 10 µM [1]: 51%
inhibition at 10 µM [2]: 35%
inhibition at 10 µM [3]: 32%
inhibition at 10 µM [4]: 71%
inhibition at 10 µM [5]: 25%
inhibition at 10 µM (NSCLC cell lines): 32 to 71%

Ki (EGFR): 170 ± 85 nM
Ki (PDGFR-β): 81 ± 10 nM
SMILES: Nc1nc(Nc2ccc(OCc3cccc(F)c3)cc2)c2c(n1)[nH]c1ccc(O)cc12 [Compound 5k]
inhibition at 10 µM [1]: 90%
inhibition at 10 µM [2]: 96%
inhibition at 10 µM [3]: 93%
inhibition at 10 µM [4]: 90%
inhibition at 10 µM [5]: 95%

Ki (EGFR): 189 ± 27 nM
Ki (PDGFR-β): 3660 ± 210 nM
decrease in the PDGFR-β affinity by a factor (PDGFR-β; compared to the 2-amino compound 5k): fifty
SMILES: Oc1ccc2[nH]c3ncnc(Nc4ccc(OCc5cccc(F)c5)cc4)c3c2c1 [Compound 5m]

Ki (EGFR): 149 ± 66 nM
Ki (PDGFR-β): 3530 ± 200 nM
SMILES: C#Cc1cccc(Nc2nc(N)nc3[nH]c4ccc(O)cc4c23)c1 [Compound 5c, 2-Amino-4-((3-ethinylphenyl)amino)-9H-pyrimido[4,5-b]indol-6-ol]

Ki (EGFR): 475 ± 143 nM
Ki (PDGFR-β): 3230 ± 195 nM
SMILES: Nc1nc(Nc2ccc(Br)cc2)c2c(n1)[nH]c1ccc(O)cc12 [Compound 5h, 2-Amino-4-((4-bromophenyl)amino)-9H-pyrimido[4,5-b]indol-6-ol]

Ki (EGFR): 413 ± 111 nM
Ki (PDGFR-β): 72 ± 15 nM
SMILES: COc1ccc(COc2ccc(Nc3nc(N)nc4[nH]c5ccc(O)cc5c34)cc2)cc1 [Compound 5i]
inhibition at 10 µM [1]: 15%
inhibition at 10 µM [2]: 1%
inhibition at 10 µM [3]: 9%
inhibition at 10 µM [4]: 29%
inhibition at 10 µM [5]: 25%
inhibition at 10 µM [6]: 15 to 25%
inhibition at 10 µM (NSCLC cell lines): 1 to 29%

Ki (EGFR): 421 ± 66 nM
Ki values PDGFR-β (PDGFR-β): not active
SMILES: C#Cc1ccc(Nc2nc(N)nc3[nH]c4ccc(O)cc4c23)cc1 [Compound 5f, 2-Amino-4-((4-ethinylphenyl)amino)-9H-pyrimido[4,5-b]indol-6-ol]

Ki (EGFR): 132 ± 99 nM
Ki (PDGFR-β): 209 ± 15 nM
SMILES: COc1cccc(COc2ccc(Nc3nc(N)nc4[nH]c5ccc(O)cc5c34)cc2)c1 [Compound 5j]

SMILES: C#Cc1cccc(Nc2ncnc3cc(OCCOC)c(OCCOC)cc23)c1 [erlotinib]
growth inhibition rate [7]: 20%
growth inhibition rate [8]: 45%
growth inhibition rate [9]: 40%

Ki (EGFR): 574 ± 110 nM
Ki (PDGFR-β): 1940 ± 218 nM
SMILES: CC(C)Oc1ccc(Nc2nc(N)nc3[nH]c4ccc(O)cc4c23)cc1 [Compound 5e, 2-Amino-4-((4-isopropoxyphenyl)amino)-9H-pyrimido[4,5-b]indol-6-ol]

Ki (EGFR): 686 ± 82 nM
Ki values PDGFR-β (PDGFR-β): not active
SMILES: Nc1nc(Nc2ccc(Cl)cc2)c2c(n1)[nH]c1ccc(O)cc12 [Compound 5g, 2-Amino-4-((4-chlorophenyl)amino)-9H-pyrimido[4,5-b]indol-6-ol]

Ki (EGFR): 935 ± 84 nM
Ki (PDGFR-β): 1910 ± 150 nM
SMILES: CCOc1ccc(Nc2nc(N)nc3[nH]c4ccc(O)cc4c23)cc1 [Compound 5d, 2-Amino-4-((4-ethoxyphenyl)amino)-9H-pyrimido[4,5-b]indol-6-ol]
